The values that follow come from article PMC11123692, “Sugar-Based Surfactants: Effects of Structural Features on the Physicochemical Properties of Sugar Esters and Their Comparison to Commercial Octyl Glycosides” (Molecules, 2024).

Common to all, as to format: physicochemical
A short description of data set [1]: Krafft temperature (Tk) by visual examination and DSC of molecule/water systems. The note with it: in water; observation and DSC; average ± SD of at least two measurements. The text has this: (§1) Water solubility reflects the ability of a particular molecule to dissolve and its interaction with water. To characterize the water solubility of most amphiphile molecules, especially the ionic surfactants, the Krafft point (Tk) is often used, referring to the critical temperature above which micelles form or the melting point of the hydrated solid surfactant. Two general approaches were used to measure the Tks of the molecules investigated herein: (1) a visual examination of the dissolution phenomenon for binary molecule/water systems, and (2) a quantitative measurement by using differential scanning calorimetry (DSC) analysis. The visual observation procedure is detailed below. We start with adding the molecule into 5–50 mL water, in a concentration range between 10^−2 mM and 10^3 mM (corresponding to a range of a surfactant mass concentration well below 20%), keeping the suspension under stirring for a certain time at room temperature (RT). Consequently, molecules can be classified into two major types: those soluble in water at RT and others insoluble at RT, with the solubility limit being called S (expressed in mM). The aspect of the sample, either transparent or turbid, is determined by direct visual examination. Tk determination with DSC is particularly applicable in the case of molecules insoluble at RT, for which a concentrated binary molecule/water mixture with a mass fraction of 20% of each molecule (C >> CMC in most cases) was prepared at 65 °C under stirring for 30 min to obtain a homogeneous system. These pre-homogenized aqueous systems were cooled and conserved in a refrigerator at 4 °C for a suitable period (>7 days), during which equilibrated hydrated crystals formed and precipitated. Then, for each molecule, about a 200–400 mg crystal sample was taken and put into the calorimeter cell. The first equilibrium phase was programmed at 4 °C for 1 h, followed by a slow heating stage from 4 °C to 65 °C at a rate of 0.5 °C/min. Tk was determined based on the location of the endothermic peak on the DSC curve, if any. All agitations were performed using a standard magnetic hotplate stirrer, MR 3001K (Heidolph Instruments, Schwabach, Germany). DSC curves were obtained from a commercial µDSC7 evo calorimeter (SETARAM Instrumentation, Caluire-et-Cuire, France). Tks are reported as the averages of at least two measurements as well as their standard deviations.

A short description of data set [2]: Water solubility limit by visual examination (transparent/turbid). The note with it: water, water; for solubility: thermodynamic from solid, read-out: Solubility Limit (S/mM).
Source text: as §1, with “We start with adding the molecule into 5–50 mL water, in a concentration range between 10^−2 mM and 10^3 mM (corresponding to a range of a surfactant mass concentration well below 20%), keeping the suspension under stirring for a certain time at room temperature (RT).” left out

A short description of data set [3]: Equilibrium surface tension, Wilhelmy plate method (CMC, γcmc, Amin and derived quantities). The note with it: for Amin: from Gibbs adsorption equation. As to the method:
CMCs are determined from the inflections in the plots of equilibrium surface tension against the logarithm of the concentration. For the interested reader, the Gibbs-free energy of micellization, ΔGmic, the Gibbs-free energy of adsorption, ΔGads, and the efficiency of surfactant adsorption pC20 were calculated based on their definitions, as presented in Table 2.
The surface activity reflects the amphiphiles’ adsorption behavior on the air–aqueous solution interface. The surface tension (γ) was obtained using the Wilhelmy plate method with a K100 Processor Tensiometer (KRUSS, Hamburg, Germany). Both the critical micellar concentration (CMC) and equilibrium surface tension at the CMC (γcmc) were derived from the typical plot of surface tension (γ) against the logarithm of concentration (Log C). The surface excess (Γmax) and minimal area per molecule at the air–aqueous solution interface (Amin) at different temperatures were calculated from the Gibbs adsorption equation [3, 46]:(2) Γmax=−1/2.303RT(dγ/dlogc) and (3) Amin=10^20/NAΓmax where R is the ideal gas constant, 8.31 J∙mol^−1∙K^−1; T is the measuring temperature, K; γ is the surface tension, N/m; c is the concentration, mol.L^−1; Amin is the minimal area per molecule, Å^2, and NA is Avogadro’s number, 6.022·10^23 mol^−1.
For each molecule, several solutions of a wide range of concentrations were prepared. Before measuring, each solution was finely homogenized with the help of a magnetic stirring bar. The stirring time was fixed at 30 min in all cases. […] Then, measurements were performed once for each concentration, at the solution preparation’s temperature, with an uncertainty of ±1 °C.

≈ marks a conversion by molar mass, not a printed value. Where “and” joins values, the source holds several entries; their conditions need not be identical. Equal entries are not always repeated. Where two headings read alike, the source gives them in different places.

Take `CCCCCCOC(=O)[C@H]1O[C@H](OC)[C@H](O)[C@@H](O)[C@@H]1O` [MeαGlc(C=O)OC6]: the “Tk (Krafft temperature)” value in data set [1] was below 4 °C. Moreover, the solubility in data set [2] (at RT) was at most 50 mM. For the same compound, in data set [3] (T = 25 °C), the C20 is 5.9 mM, the pC20 was 2.2, the ΔGads was -5.9 kcal/mol and the ΔGmic is -3.6 kcal/mol. Also, the Amin in data set [3] (T = 25 °C) is 39.2 ± 2.9 Å^2/molecule. In data set [3] (T = 25 °C (T > Tk)), this compound had a CMC of 55 ± 5 mM and a γcmc of 30.8 ± 0.8 mN/m.

With `CCCCCCCCOC(=O)[C@H]1O[C@H](OC)[C@H](O)[C@@H](O)[C@@H]1O` [MeαGlc(C=O)OC8, methyl octyl α-D-glucuronate], the “Tk (Krafft temperature)” value in data set [1] is below 4 °C. Further, the solubility in data set [2] (at RT) is 15 to 20 mM (≈ 4810 to 6410 µg/mL). Besides, in data set [3] (T = 25 °C), the C20 amounted to 0.5 mM, the pC20 turned out to be 3.3, the ΔGads was -7.3 kcal/mol and the ΔGmic was -4.8 kcal/mol. The Amin in data set [3] (T = 25 °C) came out at 41 ± 1 Å^2/molecule. Further, in data set [3] (T = 25 °C (T > Tk)), the CMC is 6 mM and 6 ± 0.5 mM; the γcmc is listed as 29.2 ± 0.35 mN/m.

For the compound `CCCCCCCCCCOC(=O)[C@H]1O[C@H](OC)[C@H](O)[C@@H](O)[C@@H]1O` [MeαGlc(C=O)OC10], the “Tk (Krafft temperature)” value in data set [1] is below 4 °C. In data set [2] (at RT), the solubility was 0.5 to 0.75 mM (≈ 174 to 261 µg/mL). For the same compound, in data set [3] (T = 25 °C), the C20 is given as 0.05 mM, the pC20 came to 4.3, the ΔGads is -8.6 kcal/mol and the ΔGmic was -5.9 kcal/mol. Also, the Amin in data set [3] (T = 25 °C) is listed as 42.4 ± 2 Å^2/molecule. In data set [3] (T = 25 °C (T > Tk)), the CMC was determined as 0.65 ± 0.5 mM and the γcmc stood at 28.1 ± 0.1 mN/m.

For the compound `CCCCCCCCCCCCOC(=O)[C@H]1O[C@H](OC)[C@H](O)[C@@H](O)[C@@H]1O` [MeαGlc(C=O)OC12], the “Tk (Krafft temperature)” value in data set [1] came out at 22.1 ± 0.2 °C. For the same compound, the solubility in data set [2] (at RT) was 0.02 to 0.05 mM (≈ 7.53 to 18.8 µg/mL). For the same compound, in data set [3] (T = 25 °C), the C20 amounted to 0.004 mM, the pC20 came out at 5.4, the ΔGads was -10.1 kcal/mol and the ΔGmic was -7.2 kcal/mol. This compound yielded an Amin in data set [3] (T = 25 °C) of 45.6 ± 5 Å^2/molecule. In addition, in data set [3] (T = 25 °C (T > Tk)), the CMC came to 0.056 ± 0.004 mM and the γcmc stood at 28.3 ± 0.3 mN/m.

As for `CCCCCC(=O)OC[C@H]1O[C@H](OC)[C@H](O)[C@@H](O)[C@@H]1O` [MeαGlcO(C=O)C5, Methyl 6-O-hexanoyl-α-D-glucopyranoside], the “Tk (Krafft temperature)” value in data set [1] is below 4 °C. For the same compound, the solubility in data set [2] (at RT) was below 40 mM. In data set [3] (T = 25 °C), this compound had a C20 of 11.2 mM, a pC20 of 2.0, a ΔGads of -5.6 kcal/mol and a ΔGmic of -3.3 kcal/mol. This compound also came in with an Amin in data set [3] (T = 25 °C) of 40.1 ± 0.3 Å^2/molecule. In data set [3] (T = 25 °C (T > Tk)), this compound displayed a CMC of 105 ± 5 mM and a γcmc of 31 ± 0.1 mN/m.

As to `CCCCCCCC(=O)OC[C@H]1O[C@H](OC)[C@H](O)[C@@H](O)[C@@H]1O` [MeαGlcO(C=O)C7, Methyl 6-O-octanoyl-α-D-glucopyranoside], the “Tk (Krafft temperature)” value in data set [1] was below 4 °C. Further, the solubility in data set [2] (at RT) was at most 10 mM. Further, the solubility in data set [2] (at T > Tk) is below 10 mM. In data set [3] (T = 25 °C), the C20 is listed as 1.0 mM, the pC20 is on record as 3.0, the ΔGads is -6.9 kcal/mol and the ΔGmic is -4.5 kcal/mol. Moreover, in data set [3] (T = 25 °C), the Amin is reported as 39 ± 2 Å^2/molecule. For the same compound, in data set [3] (T = 25 °C (T > Tk)), the CMC is 9.8 mM and 9.8 ± 0.76 mM; the γcmc is given as 29.5 ± 0.5 mN/m.

As to `CCCCCCCCCC(=O)OC[C@H]1O[C@H](OC)[C@H](O)[C@@H](O)[C@@H]1O` [MeαGlcO(C=O)C9, Methyl 6-O-decanoyl-α-D-glucopyranoside], the “Tk (Krafft temperature)” value in data set [1] came to 26.5 ± 0.2 °C. Also, the “Solubility Limit (S/mM)” value in data set [2] (at RT) is “insoluble”. In addition, the solubility in data set [2] (at T > Tk) is at most 1 mM. Also, in data set [3] (T = 30 °C), the C20 is given as 0.08 mM, the pC20 was found to be 4.1, the ΔGads is -8.4 kcal/mol and the ΔGmic was -5.8 kcal/mol. Further, the Amin in data set [3] (T = 30 °C) is 41.8 ± 0.9 Å^2/molecule. Besides, in data set [3] (T = 30 °C (T > Tk)), the CMC was 0.92 ± 0.08 mM and the γcmc is 27.9 ± 0.05 mN/m.

Take `CCCCCCCCCCCC(=O)OC[C@H]1O[C@H](OC)[C@H](O)[C@@H](O)[C@@H]1O` [MeαGlcO(C=O)C11, Methyl 6-O-dodecanoyl-α-D-glucopyranoside]: the “Tk (Krafft temperature)” value in data set [1] turned out to be 42.9 ± 0.1 °C. Further, the “Solubility Limit (S/mM)” value in data set [2] (at RT) is on record as “insoluble”. Also, in data set [2] (at T > Tk), the solubility is at most 0.1 mM. In addition, in data set [3] (T = 50 °C), the C20 is 0.007 mM, the pC20 is 5.1, the ΔGads is -10.4 kcal/mol and the ΔGmic was -7.7 kcal/mol. In addition, in data set [3] (T = 50 °C), the Amin was 45.8 ± 2.8 Å^2/molecule. Further, in data set [3] (T = 50 °C (T > Tk)), the CMC worked out at 0.08 ± 0.005 mM and the γcmc was 26.7 ± 0.25 mN/m.

Turning to `CCCCCCCCOC(=O)[C@H]1O[C@@H](OC)[C@H](O)[C@@H](O)[C@H]1O` [MeβGal(C=O)OC8, methyl octyl galacturonate], the “Tk (Krafft temperature)” value in data set [1] was determined as 31.6 ± 0.9 °C. The “Solubility Limit (S/mM)” value in data set [2] (at RT) is reported as “insoluble”. In data set [2] (at T > Tk), the “Solubility Limit (S/mM)” value is reported as “high solubility limits” and the solubility was above 100 mM. Further, in data set [3] (T = 40 °C), the C20 is on record as 1.2 mM, the pC20 is 2.9, the ΔGads was -7.4 kcal/mol and the ΔGmic was -5.0 kcal/mol. In data set [3] (T = 40 °C), this compound displayed an Amin of 42.9 ± 3.9 Å^2/molecule. Further, in data set [3] (T = 40 °C (T > Tk)), the CMC turned out to be 6.9 ± 0.4 mM and the γcmc was found to be 29.4 ± 0.36 mN/m.
